# Data: ChEMBL document CHEMBL5291721, “A preclinical secondary pharmacology resource illuminates target-adverse drug reaction associations of marketed drugs” (Nat Commun, 2023)
# Legend:
# [1] = molecular target: Delta-type opioid receptor (Homo sapiens, UniProt P41143)
# [2] = molecular target: T1, Muscarinic acetylcholine receptor M2 (Homo sapiens, UniProt P08172); type: functional, cell-based
# T1 sequence (P08172 whole entry): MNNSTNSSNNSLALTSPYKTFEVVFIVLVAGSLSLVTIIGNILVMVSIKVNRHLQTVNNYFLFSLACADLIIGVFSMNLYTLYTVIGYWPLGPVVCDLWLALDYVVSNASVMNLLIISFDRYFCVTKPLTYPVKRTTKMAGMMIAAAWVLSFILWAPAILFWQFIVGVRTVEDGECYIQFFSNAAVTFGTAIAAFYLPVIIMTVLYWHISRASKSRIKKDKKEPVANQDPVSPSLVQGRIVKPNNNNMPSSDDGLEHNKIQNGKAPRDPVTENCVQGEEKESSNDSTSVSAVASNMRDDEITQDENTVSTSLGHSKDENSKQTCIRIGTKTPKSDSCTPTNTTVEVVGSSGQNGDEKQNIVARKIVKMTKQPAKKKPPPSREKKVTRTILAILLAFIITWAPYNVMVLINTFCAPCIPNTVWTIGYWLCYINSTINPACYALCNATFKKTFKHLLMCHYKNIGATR
# [3] = molecular target: T2, Prostaglandin G/H synthase 1 (Rattus norvegicus, UniProt Q63921); type: functional
# T2 sequence (Q63921 whole entry): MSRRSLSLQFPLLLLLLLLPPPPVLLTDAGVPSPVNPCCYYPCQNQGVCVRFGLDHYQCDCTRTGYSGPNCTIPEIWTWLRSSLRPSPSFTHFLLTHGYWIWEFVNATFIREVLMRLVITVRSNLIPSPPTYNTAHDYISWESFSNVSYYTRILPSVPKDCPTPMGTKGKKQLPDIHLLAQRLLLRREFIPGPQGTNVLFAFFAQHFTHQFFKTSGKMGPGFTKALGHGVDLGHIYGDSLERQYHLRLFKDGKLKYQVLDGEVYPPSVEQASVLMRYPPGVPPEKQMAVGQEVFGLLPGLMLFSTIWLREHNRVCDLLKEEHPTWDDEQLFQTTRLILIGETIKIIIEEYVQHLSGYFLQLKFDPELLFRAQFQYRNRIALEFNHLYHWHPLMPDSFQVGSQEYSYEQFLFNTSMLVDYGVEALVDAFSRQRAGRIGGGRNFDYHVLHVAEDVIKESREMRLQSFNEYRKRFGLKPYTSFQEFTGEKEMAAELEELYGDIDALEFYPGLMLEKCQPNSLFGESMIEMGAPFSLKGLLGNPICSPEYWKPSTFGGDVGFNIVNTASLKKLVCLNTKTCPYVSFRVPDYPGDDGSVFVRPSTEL
# Cannabinoid receptor 1 = Cannabinoid receptor 1 (Homo sapiens, UniProt P21554); type: functional, cell-based
# [4] = molecular target: T3, Amine oxidase [flavin-containing] A (Homo sapiens, UniProt P21397); type: functional
# T3 sequence (P21397 whole entry): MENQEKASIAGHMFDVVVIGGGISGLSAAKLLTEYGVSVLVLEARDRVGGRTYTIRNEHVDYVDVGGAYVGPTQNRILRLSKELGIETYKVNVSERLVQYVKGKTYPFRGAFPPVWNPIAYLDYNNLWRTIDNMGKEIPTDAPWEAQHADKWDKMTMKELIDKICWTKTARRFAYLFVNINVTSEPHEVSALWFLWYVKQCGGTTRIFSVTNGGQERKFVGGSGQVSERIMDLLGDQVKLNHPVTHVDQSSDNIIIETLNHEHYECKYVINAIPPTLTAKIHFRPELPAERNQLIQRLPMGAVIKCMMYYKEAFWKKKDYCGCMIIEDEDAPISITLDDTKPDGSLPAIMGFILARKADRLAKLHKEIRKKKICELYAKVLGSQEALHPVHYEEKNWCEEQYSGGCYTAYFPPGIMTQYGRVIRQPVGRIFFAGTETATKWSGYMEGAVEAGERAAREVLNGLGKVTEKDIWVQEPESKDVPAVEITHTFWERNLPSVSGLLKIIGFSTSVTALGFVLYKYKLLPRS
# Progesterone receptor = molecular target: T4, Progesterone receptor (Homo sapiens, UniProt P06401); type: functional
# T4 sequence (P06401 whole entry): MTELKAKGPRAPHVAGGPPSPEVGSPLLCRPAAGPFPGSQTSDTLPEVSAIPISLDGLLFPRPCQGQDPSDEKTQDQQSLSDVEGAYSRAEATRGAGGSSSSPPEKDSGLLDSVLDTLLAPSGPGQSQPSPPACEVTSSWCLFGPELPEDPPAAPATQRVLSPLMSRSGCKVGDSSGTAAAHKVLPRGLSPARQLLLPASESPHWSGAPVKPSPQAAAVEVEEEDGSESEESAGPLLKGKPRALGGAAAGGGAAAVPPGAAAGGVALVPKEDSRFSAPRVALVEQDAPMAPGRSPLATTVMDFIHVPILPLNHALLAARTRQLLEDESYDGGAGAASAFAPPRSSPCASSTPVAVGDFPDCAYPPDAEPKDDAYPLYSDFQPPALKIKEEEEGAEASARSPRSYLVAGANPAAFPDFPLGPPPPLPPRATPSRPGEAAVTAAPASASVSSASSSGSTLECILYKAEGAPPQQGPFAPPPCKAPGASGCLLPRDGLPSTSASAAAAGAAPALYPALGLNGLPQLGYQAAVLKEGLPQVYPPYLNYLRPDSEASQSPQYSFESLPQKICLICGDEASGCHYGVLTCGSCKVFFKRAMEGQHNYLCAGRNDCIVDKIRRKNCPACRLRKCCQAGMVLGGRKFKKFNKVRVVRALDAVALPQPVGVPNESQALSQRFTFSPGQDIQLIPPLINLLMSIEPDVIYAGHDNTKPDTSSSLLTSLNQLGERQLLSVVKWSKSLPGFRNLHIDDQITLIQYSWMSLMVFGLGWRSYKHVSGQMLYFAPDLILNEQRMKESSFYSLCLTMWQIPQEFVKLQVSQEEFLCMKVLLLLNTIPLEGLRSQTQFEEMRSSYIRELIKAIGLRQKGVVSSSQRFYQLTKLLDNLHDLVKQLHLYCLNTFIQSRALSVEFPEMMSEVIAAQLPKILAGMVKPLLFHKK
# [5] = molecular target: 5-hydroxytryptamine receptor 2A (Homo sapiens, UniProt P28223); type: functional, cell-based
# Note: assay procedure not described here.
# Cannabinoid receptor 1, sequence (P21554 whole entry): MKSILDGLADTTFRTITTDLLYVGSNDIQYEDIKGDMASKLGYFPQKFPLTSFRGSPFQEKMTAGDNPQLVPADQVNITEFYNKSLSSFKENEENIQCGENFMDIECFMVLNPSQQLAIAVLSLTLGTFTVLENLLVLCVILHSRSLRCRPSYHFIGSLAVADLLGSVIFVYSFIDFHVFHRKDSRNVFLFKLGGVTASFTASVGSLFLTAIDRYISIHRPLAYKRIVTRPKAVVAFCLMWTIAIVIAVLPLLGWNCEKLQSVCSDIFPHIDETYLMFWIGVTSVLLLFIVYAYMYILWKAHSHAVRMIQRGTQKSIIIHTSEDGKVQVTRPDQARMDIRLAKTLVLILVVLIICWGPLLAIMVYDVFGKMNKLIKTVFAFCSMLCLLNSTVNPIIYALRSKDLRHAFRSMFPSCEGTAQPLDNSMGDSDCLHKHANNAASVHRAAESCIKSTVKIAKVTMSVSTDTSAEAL
# 5-hydroxytryptamine receptor 2A, sequence (P28223 whole entry): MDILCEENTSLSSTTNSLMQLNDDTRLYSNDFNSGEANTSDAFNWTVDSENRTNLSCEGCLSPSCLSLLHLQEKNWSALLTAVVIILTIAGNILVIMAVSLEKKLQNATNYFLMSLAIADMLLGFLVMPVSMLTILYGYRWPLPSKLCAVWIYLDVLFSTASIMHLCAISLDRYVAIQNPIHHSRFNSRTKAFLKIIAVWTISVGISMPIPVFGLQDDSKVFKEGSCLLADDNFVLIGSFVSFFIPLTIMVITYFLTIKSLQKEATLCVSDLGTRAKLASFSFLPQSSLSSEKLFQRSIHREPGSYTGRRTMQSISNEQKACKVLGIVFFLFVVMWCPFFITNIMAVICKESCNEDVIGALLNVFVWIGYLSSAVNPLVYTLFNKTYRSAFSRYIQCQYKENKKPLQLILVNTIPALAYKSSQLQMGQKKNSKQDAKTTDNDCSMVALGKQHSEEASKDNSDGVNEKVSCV
# Delta-type opioid receptor, sequence (P41143 whole entry): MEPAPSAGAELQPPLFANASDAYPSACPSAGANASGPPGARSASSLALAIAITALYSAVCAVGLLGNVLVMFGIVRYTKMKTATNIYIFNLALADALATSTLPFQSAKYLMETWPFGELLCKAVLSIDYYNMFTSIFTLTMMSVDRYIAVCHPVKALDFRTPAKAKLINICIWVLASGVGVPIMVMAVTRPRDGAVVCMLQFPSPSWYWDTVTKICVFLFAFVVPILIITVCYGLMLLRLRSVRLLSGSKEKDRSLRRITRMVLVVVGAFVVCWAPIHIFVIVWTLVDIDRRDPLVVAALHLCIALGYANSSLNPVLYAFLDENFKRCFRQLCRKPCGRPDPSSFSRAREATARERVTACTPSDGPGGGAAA
AC50 [1] [µM],AC50 [2] [µM],AC50 [3] [µM],AC50 (Cannabinoid receptor 1) [µM],AC50 [4] [µM],AC50 (Progesterone receptor) [µM],AC50 [5] [µM],SMILES
> 30,> 30,> 30,> 30,> 30,> 30,> 30,O=C(O)c1ccccc1OP(=O)(O)O [FOSFOSAL]
> 30,> 30,9.4,> 30,> 30,> 30,> 30,CCCCCCOC(=O)CCC(=O)CN [HEXAMINOLEVULINATE]
> 30,> 30,> 30,> 30,> 30,> 30,> 30,CCCC[C@H](C)C[C@H](O)/C=C/[C@H]1[C@H](O)CC(=O)[C@@H]1CCCC/C=C/C(=O)O [LIMAPROST]
> 30,> 30,> 30,> 30,> 30,> 30,> 30,Cc1ccc(NC(=O)C2(c3ccc4c(c3)OC(F)(F)O4)CC2)nc1-c1cccc(C(=O)O)c1 [LUMACAFTOR]
> 30,> 30,> 30,> 30,> 30,> 30,> 30,CC(C)OC(=O)C(C(=O)OC(C)C)=C1SC=CS1 [MALOTILATE]
> 30,> 10,> 10,> 30,> 10,> 10,> 10,CC(=O)Nc1c(I)c(C(=O)N[C@H]2C(O)O[C@H](CO)[C@@H](O)[C@@H]2O)c(I)c(N(C)C(C)=O)c1I (some centres not stated) [METRIZAMIDE]
> 30,> 30,> 30,> 30,> 30,> 30,> 30,CN(c1nccc(=O)[nH]1)C1CCN(c2nc3ccccc3n2Cc2ccc(F)cc2)CC1 [MIZOLASTINE]
> 30,> 30,> 30,> 30,> 30,> 30,> 30,CCOC(=O)Nc1ccc2c(c1)N(C(=O)CCN1CCOCC1)c1ccccc1S2 [MORICIZINE]
> 30,> 30,> 30,> 30,> 30,> 30,> 30,Cc1ccc(=O)n(-c2ccccc2)c1 [PIRFENIDONE]
> 30,> 30,> 30,> 30,> 30,> 30,> 30,CCCOC(C(=O)OC1CCN(C)CC1)(c1ccccc1)c1ccccc1 [PROPIVERINE]

SMILES,AC50 [1] [µM],AC50 [2] [µM],AC50 [3] [µM],AC50 (Cannabinoid receptor 1) [µM],AC50 [4] [µM],AC50 (Progesterone receptor) [µM],AC50 [5] [µM]
CC[N+]1(C)CCCC(OC(=O)C(O)(c2ccccc2)c2ccccc2)C1 (configuration not stated) [PIPENZOLATE],> 30,> 30,> 30,> 30,> 30,> 30,> 30
